Results as given in paper PMC8344233, “Anticancer activity and toxicity of new quaternary ammonium geldanamycin derivative salts and their mixtures with potentiators” (Journal of Enzyme Inhibition and Medicinal Chemistry, 2021).
Converted amounts (≈) assume the structure as drawn.

Experiments:
[1] = system: HDF; assay: SRB cytotoxicity assay, human dermal fibroblasts HDF; assay type: cell-based; conditions: 72 h, ± SD, mixtures equimolar 1:1, read-out: IC50 HDF (toxicity in normal cells)
Experimental: (§1) Medium. Human Dermal Fibroblasts cell line (HDF) was cultured in Fibroblast Basal Medium.
(§2) Each medium was supplemented with 10% fetal bovine serum, 1% L-glutamine, and 1% penicillin/streptomycin solution. The cell lines were kept in the incubator at 37◦C. The optimal plating density of cell lines was determined to be 5 × 104. All the cell lines and mediums were obtained from American Type Culture Collection (ATCC) supplied by LGC-Standards. The protein-staining SRB (Sigma-Aldrich) microculture colorimetric assay, developed by the National Cancer Institute (USA) for in vitro antitumor screening was used in this study, to estimate the cell number by providing a sensitive index of total cellular protein content, being linear to cell density. The monolayer cell culture was trypsinized and the cell count was adjusted to 5 × 10^4 cells. To each well of the 96 well microtiter plate, 0.1 mL of the diluted cell suspension (approximately […]) was added. After 24 hours, when a partial monolayer was formed, the supernatant was washed out and 100 μL of six different compound concentrations (0.1, 0.2, 1, 2, 10, and 20 μM) were added to the cells in microtitre plates. The tested compounds were dissolved in DMSO (containing 10 % of water) (100 μL) and the […]
(§3) lines. The cells were exposed to compounds for 72 hours at 37 °C in a humidified atmosphere (90% RH) containing 5% CO2. After that, 25 μL of 50 % trichloroacetic acid was added to the wells and the plates were incubated for 1 hour at 4◦C. The plates were then washed out with the distilled water to remove traces of medium and next dried by the air. The air-dried plates were stained with 100 μL of 0.4% sulforhodamine B (prepared in 1 % acetic acid) and kept for 30 minutes at room temperature. The unbound dye was removed by rapidly washing with 1% […]
(§4) acetic acid and then air dried overnight. The protein-bound dye was dissolved in 100 μL of 10 mM unbuffered Tris base (pH 10.5) for optical density determination at 490 nm. All cytotoxicity experiments were performed three times. Cell survival was measured as the percentage absorbance compared to the control (nontreated cells). Cytarabine (ara-C) and GDM were used as the internal standards. Additionally biological assays were performed in Human Dermal Fibroblasts cell line (HDF) in aim to evaluate cytotoxicity of GDM and its 1-13 analogs in healthy cells. SI indexes were calculated from equation SI = IC50 normal cell line HDF/IC50 respective cancerous cell line (Table 2). A beneficial SI > 1.0 indicates a compound with efficacy against tumor cell greater than the toxicity against normal cells. […]

[2] = physchem; conditions: water, Solubility SH2O
[3] = system: PC-3; assay: SRB cytotoxicity assay, PC-3 (2nd panel); assay type: cell-based, human
Experimental: as §1, §2, §3, §4

[4] = system: CCD39Lu; assay: MTT cytotoxicity assay, normal lung fibroblasts CCD39Lu; assay type: cell-based; conditions: Fibroblast, ± SD, healthy human lung fibroblasts, 72 h, read-out: IC50 CCD39Lu (toxicity in normal cells)
Experimental: (§5) Cell survival was measured as the percentage absorbance compared to the control (nontreated cells). […]
(§6) SI indexes were calculated from equation SI = IC50 normal cell line HDF/IC50 respective cancerous cell line (Table 2). A beneficial SI > 1.0 indicates a compound with efficacy against tumor cell greater than the toxicity against normal cells.
(§7) All experiments were carried out with human breast adenocarcinoma (MDA-MB-231 and MCF-7), hepatocellular carcinoma (HepG2), human cervical adenocarcinoma (HeLa) cancer cell lines, and human normal lung fibroblast (CCD39Lu) cell line. The cell line was purchased from the European Collection of Cells Cultures (ECACC, Salisbury, UK), and cultured in DMEM with phenol red supplemented with 10% (v/v) FBS, 1% (v/v) penicillin/streptomycin, and 1% (v/v) L-glutamine at 37 °C, in a humidified atmosphere containing 5% CO2.
(§8) The tested compounds were dissolved in DMSO to the final concentration 10 mM and stored […]
(§9) The cytotoxic effect of the tested compounds was determined by MTT assay. MDA-MB-231, MCF-7, HepG2, HeLa, and CCD39Lu cells were seeded in 96 wells plates at density 2x10^4 cells/well and incubated overnight under cell culture condition. Next, cells were treated with tested compounds at concentrations of 10 µM; 5 µM; 2.5 µM; 1.2 µM; 0.6 µM; 0.3 µM; 0.15 […]
(§10) µM. Moreover, GDM (for MCF-7) and 8 (for MCF-7 and MDA-MB-231) due to high cytotoxicity, were additionally tested at a lower concentration range of 2.5 µM; 1.2 µM; 0.6 µM; 0.3 µM; 0.15µM; 0.07 µM; 0.03 µM. DMSO was used as a control, and the concentration […]
(§11) Tested compounds were added to cells in the medium without phenol red. Cells were incubated 72 h at 37 °C in a humidified atmosphere containing 5% CO2.
(§12) Then, the medium was aspirated and MTT solution at a concentration of 0.59 mg/mL in cell culture medium was added to each well. Plates were incubated for 1.5 hours at 37 °C, and then plates were centrifuged for 3 minutes. The formazan crystals were dissolved in 200 µl DMSO and plates were agitated on a plate shaker at 300 –500 rpm for 10 minutes. Absorbance at 570 nm was measured using a plate reader (Biotek Instruments, Elx -800). Data were normalized to the mean absorption of control cells. All experiments were performed at least three times. […]

[5] = system: SKOV-3; assay: SRB cytotoxicity assay, SKOV-3 (2nd panel); assay type: cell-based, human
Experimental: (§13) Human cancer cells SKBR-3 (human breast cancer cell line) and SKOV-3 (ovarian cancer cell line) were cultured in McCoy’s Modified Medium. […]
as §1, §2, §3, §4

[6] = system: A-549; assay: SRB cytotoxicity assay, A-549 (2nd panel); assay type: cell-based, human
Experimental: as §1, §2, §3, §4

[7] = system: MDA-MB-231; assay: MTT cytotoxicity assay, MDA-MB-231 (1st panel); assay type: cell-based, human; conditions: for IC50: Homo sapiens, MDA-MB-231, ± SD, MTT, 72 h; for selectivity index SI (MDA-MB-231): IC50 normal cell line CCD39Lu/IC50 MDA-MB-231
Experimental: as §5, §6, §7, §8, §9, §10, §11, §12

[8] = system: MCF-7; assay: MTT cytotoxicity assay, MCF-7 (1st panel); assay type: cell-based, human; conditions: for IC50: Homo sapiens, MCF7, 72 h, ± SD, MTT, 72 h; for selectivity index SI (MCF-7): IC50 normal cell line CCD39Lu/IC50 MCF-7
Experimental: as §5, §6, §7, §8, §9, §10, §11, §12

[9] = system: U-87; assay: SRB cytotoxicity assay, U-87 (2nd panel); assay type: cell-based, human
Experimental: U-87MG cells (glioblastoma cell line) were cultured in Eagle’s Minimal Essential Medium. Human Dermal Fibroblasts cell line (HDF) was cultured in Fibroblast Basal Medium.
as §2, §3, §4

[10] = system: SKBR-3; assay: SRB cytotoxicity assay, SKBR-3 (2nd panel); assay type: cell-based, human
Experimental: as §13, §1, §2, §3, §4

[11] = system: HeLa; assay: MTT cytotoxicity assay, HeLa (1st panel); assay type: cell-based, human; conditions: for IC50: Homo sapiens, HeLa, ± SD, MTT, 72 h; for selectivity index SI (HeLa): IC50 normal cell line CCD39Lu/IC50 HeLa
Experimental: as §5, §6, §7, §8, §9, §10, §11, §12

[12] = system: HepG2; assay: MTT cytotoxicity assay, HepG2 (1st panel); assay type: cell-based, human; conditions: for IC50: Homo sapiens, HepG2, ± SD, MTT, 72 h; for selectivity index SI (HepG2): IC50 normal cell line CCD39Lu/IC50 HepG2
Experimental: as §5, §6, §7, §8, §9, §10, §11, §12

[13] = Water solubility SH2O

SMILES	IC50 [4]	IC50 [7]	selectivity index SI (MDA-MB-231) [7]	IC50 [8]	selectivity index SI (MCF-7) [8]	IC50 [11]	selectivity index SI (HeLa) [11]	IC50 [12]	selectivity index SI (HepG2) [12]	further results
CO[C@H]1/C=C\C=C(/C)C(=O)NC2=CC(=O)C(NC3C[N+]4(Cc5ccc([N+](=O)[O-])o5)CCC3CC4)=C(C[C@@H](C)C[C@H](OC)[C@H](O)[C@@H](C)/C=C(\C)[C@@H]1OC(N)=O)C2=O (stereo partly shown) [Compound 11]	> 10 µM	3.93 ± 1.6 µM	> 2.54	4.67 ± 2 µM	> 2.14	8.91 ± 3.19 µM	> 1.12	8.86 ± 0.17 µM	> 1.13	CC50 [1]: 7.91 ± 0.91 µM; solubility [2]: 2300 µg/mL; IC50 ([3]; Homo sapiens, PC-3, ± SD, SRB, 72 h, mixtures equimolar 1:1): 6.22 ± 0.13 µM; selectivity index SIHDF (PC-3) ([3]; IC50 normal cell line HDF/IC50 PC-3): 1.27; IC50 ([5]; Homo sapiens, SK-OV-3, ± SD, SRB, 72 h, mixtures equimolar 1:1): 6.04 ± 0.38 µM; selectivity index SIHDF (SKOV-3) ([5]; IC50 normal cell line HDF/IC50 SKOV-3): 1.31; IC50 ([6]; Homo sapiens, A549, ± SD, SRB, 72 h): 6.83 ± 0.32 µM; selectivity index SIHDF (A-549) ([6]; IC50 normal cell line HDF/IC50 A-549): 1.16; IC50 ([9]; Homo sapiens, U-87 MG, ± SD, SRB, 72 h): 6.06 ± 0.58 µM; selectivity index SIHDF (U-87) ([9]; IC50 normal cell line HDF/IC50 U-87): 1.31; IC50 ([10]; Homo sapiens, SK-BR-3, ± SD, SRB, 72 h, mixtures equimolar 1:1): 6.49 ± 0.07 µM; selectivity index SIHDF (SKBR-3) ([10]; IC50 normal cell line HDF/IC50 SKBR-3): 1.22
CO[C@H]1/C=C\C=C(/C)C(=O)NC2=CC(=O)C(NC3CCN(C(C)=O)CC3)=C(C[C@@H](C)C[C@H](OC)[C@H](O)[C@@H](C)/C=C(\C)[C@@H]1OC(N)=O)C2=O [Compound 6]	> 10 µM	3.16 ± 0.89 µM	> 3.16	0.61 ± 0.14 µM	> 16.39	4.75 ± 0.35 µM	> 2.11	3.38 ± 0.13 µM	> 2.96	
CO[C@H]1/C=C\C=C(/C)C(=O)NC2=CC(=O)C(NC3CCC(O)CC3)=C(C[C@@H](C)C[C@H](OC)[C@H](O)[C@@H](C)/C=C(\C)[C@@H]1OC(N)=O)C2=O (stereo partly shown) [Compound 4]	> 10 µM	> 10 µM	> 1	> 10 µM	> 1	> 10 µM	> 1	> 10 µM	> 1	solubility [13]: 40 µg/mL (≈ 62.1 µM)
